Results from ChEMBL document CHEMBL1268882, “Synthesis and biological evaluation of novel triptolide analogues for anticancer activity” (Bioorg Med Chem Lett, 2010).

Assays:
[1] = system: PC-3; test: Antiproliferative activity against human PC3 cells after 72 hrs by SRB assay; assay type: functional, cell-based; details: PC-3, 72 h
[2] = system: SK-OV-3; test: Antiproliferative activity against human SKOV3 cells after 72 hrs by SRB assay; assay type: functional, cell-based; details: SK-OV-3, 72 h

IC50 [1] [µM]	IC50 [2] [nM]	Structure (SMILES)
0.01	0.05	CC(C)[C@]12O[C@H]1C=C1[C@]3(O[C@H]3C[C@H]3C4=C(CC[C@]13C)C(=O)OC4)[C@@H]2O
> 100	> 100000	CC(C)[C@]12O[C@H]1[C@H](O)[C@@]1(O)[C@@]3(C)CCC4=C(COC4=O)[C@@H]3C[C@@H]3O[C@@]31C2=O
0.9	20	CC(C)[C@]12O[C@H]1C=C1[C@]3(O[C@H]3C[C@H]3C4=C(CC[C@]13C)C(=O)NC4)C2=O
14	20	CC(C)[C@]12O[C@H]1[C@@H]1O[C@@]13[C@@]1(C)CCC4=C(CNC4=O)[C@@H]1C[C@@H]1O[C@@]13C2=O
> 100	95000	CC(C)[C@@]12O[C@@H]1C=C1[C@]3(O[C@H]3C[C@@H]3C4=C(CC[C@]13C)C(=O)OC4)C2=O
29	66000	CC(C)[C@]12O[C@H]1C=C1[C@]3(O[C@H]3C[C@@H]3C4=C(CC[C@]13C)C(=O)OC4)C2=O
> 100	> 100000	CC(C)[C@]12O[C@H]1C=C1[C@]3(O[C@H]3C[C@@H]3C4=C(CC[C@]13C)C(=O)OC4)[C@@H]2O
> 100	56000	CC(C)[C@@]12O[C@@H]1C=C1[C@]3(O[C@@H]3C[C@@H]3C4=C(CC[C@]13C)C(=O)OC4)[C@@H]2O

Further lines, the compound ahead of its results:

Structure (SMILES)	IC50 [1] [µM]	IC50 [2] [nM]
CC(C)[C@]12O[C@H]1C=C1[C@]3(O[C@H]3C[C@H]3C4=C(CC[C@]13C)C(=O)OC4)C2=O	2.7	3
CC(C)[C@]12O[C@H]1C=C1[C@]3(O[C@H]3C[C@H]3C4=C(CC[C@]13C)C(=O)OC4)[C@H]2O	29	500
CC(C)[C@@]12O[C@@H]1[C@H]1O[C@]13[C@@]1(C)CCC4=C(COC4=O)[C@H]1C[C@@H]1O[C@@]13C2=O	> 100	> 100000
CC(C)[C@]12O[C@H]1[C@H]1O[C@]13[C@@]1(C)CCC4=C(COC4=O)[C@H]1C[C@@H]1O[C@@]13C2=O	> 100	> 100000
CC(C)[C@]12O[C@H]1[C@H]1O[C@]13[C@@]1(C)CCC4=C(COC4=O)[C@H]1C[C@H]1O[C@@]13C2=O	> 100	4600
CC(C)[C@]12O[C@H]1[C@@H]1O[C@]13[C@]1(O[C@H]1C[C@H]1C4=C(CC[C@@]13C)C(=O)OC4)[C@@H]2O [TRIPTOLIDE]	–	6
CC(C)[C@]12O[C@H]1[C@@H]1O[C@@]13[C@@]1(C)CCC4=C(COC4=O)[C@@H]1C[C@@H]1O[C@@]13C2=O [TRIPTONIDE]	0.6	8
